Key:
[1] = test system: platelets; assay: Platelet activation by whole blood flow cytometry: P-selectin (CD62P) expression; format: cell-based, human; details: PAR1 1 μM final, 501 healthy subjects
Method: (§1) PAR1 and PAR4 agonists were supplied as freeze dried peptides and reconstituted with HEPES buffered saline [HBS, 0.14M NaCl, 5 mM KCl, 1 mM MgSO4, 10 mM HEPES (sodium salt), pH 7.4] to 1 mM concentrations prior to storing in single use aliquots at −80° C. Immediately prior to use PAR1 was thawed and diluted in HBS to 10 μM as a working concentration to give a final assay concentration of 1 μM. Similarly PAR4 was diluted to 100 μM working concentration to give a final assay concentration of 10 μM.
(§2) The antibodies used for flow cytometry were: rabbit FITC-anti-fibrinogen (Dako Ltd, Ely, UK), PE-anti-CD62P and a relevant PE-isotype control (Bristol Institute for Transfusion Science, Bristol, UK). HBS was used for all dilutions.
(§3) Blood was processed within 15 minutes of venesection, with 5 μL of citrated whole blood containing aspirin (100 μM) and hirudin (10 U/mL) being added to 45 μL of HBS containing apyrase (4 U/mL), either FITC-anti-fibrinogen or PE anti-CD62P, and either PAR1 (1 μM final concentration) or PAR4 (10 μM final concentration). […] Platelets were identified by light scatter and results were recorded as the percentage of platelets positive for the relevant activation marker. […]

[2] = test system: platelets; assay: Platelet activation by whole blood flow cytometry: fibrinogen binding; format: cell-based, human; details: PAR1 1 μM final, 501 healthy subjects
Method: as §1, §2, §3

[3] = molecular target: T1, protease-activated receptor type 4 (PAR4) (Homo sapiens, UniProt Q96RI0); details: abstract of Lee et al., J. Med. Chem., 44(22):3746-3749 (2001); cited from earlier work
T1 sequence (Q96RI0 18-385): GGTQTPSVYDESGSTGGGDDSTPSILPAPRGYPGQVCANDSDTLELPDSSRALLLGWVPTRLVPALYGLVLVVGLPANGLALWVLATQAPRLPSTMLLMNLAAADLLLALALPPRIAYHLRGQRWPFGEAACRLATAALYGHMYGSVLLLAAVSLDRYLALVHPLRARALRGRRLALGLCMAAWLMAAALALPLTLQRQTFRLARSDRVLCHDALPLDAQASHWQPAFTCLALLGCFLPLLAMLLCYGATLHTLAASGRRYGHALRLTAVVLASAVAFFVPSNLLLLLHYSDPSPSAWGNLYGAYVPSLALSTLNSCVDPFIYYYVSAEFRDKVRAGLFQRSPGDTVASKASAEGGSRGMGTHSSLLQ

Compound	P-selectin expression, % positive platelets, median [1]	fibrinogen binding, % positive platelets, median [2]	inhibition of PAR4-dependent platelet activation [3]
PAR1: PAR1 agonist, freeze dried peptide supplied by Bristol-Myers Squibb; Example 2 control is Compound A, SFFLRR (SEQ ID NO: 39)	86.8%	19.7%	
CCOC(=O)c1ccc(-c2nn(Cc3ccccc3)c3ccccc23)cc1			selective and potent inhibitor

From patent publication US20160274108A1, “DIAGNOSTIC METHODS FOR PAR4 ANTAGONIST THERAPY” (BRISTOL-MYERS SQUIBB COMPANY, priority 2013, published 2016)
